From PubChem BioAssay (NCI)
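Values below derive from 48-hour exposures of cells grown in 96-well plates, with endpoints linearly interpolated between the two concentrations bracketing the appropriate inhibition level. Here, GI50 denotes the concentration required for 50% inhibition of growth. TGI denotes the concentration required for complete inhibition of growth.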

Legend:
Assay in all cases: growth of human tumour cells (NCI), 48 h
SF-539 CNS = test system: SF-539 CNS
SW-620 colon = test system: SW-620 colon
HCC-2998 colon = test system: HCC-2998 colon
SN12C renal = test system: SN12C renal
SK-MEL-28 melanoma = test system: SK-MEL-28 melanoma
HT29 colon = test system: HT29 colon
HS 578T breast = test system: HS 578T breast
K-562 leukemia = test system: K-562 leukemia
MCF7 breast = test system: MCF7 breast
TK-10 renal = test system: TK-10 renal

Compound | TGI (SF-539 CNS) [µM] | TGI (SW-620 colon) [µM] | TGI (HCC-2998 colon) [µM] | TGI (SN12C renal) [µM] | TGI (SK-MEL-28 melanoma) [µM] | TGI (HT29 colon) [µM] | TGI (HS 578T breast) [µM] | TGI (K-562 leukemia) [µM] | TGI (MCF7 breast) [µM] | TGI (TK-10 renal) [µM] | GI50 (HS 578T breast) [µM] | GI50 (SF-539 CNS) [µM] | GI50 (SW-620 colon) [µM] | GI50 (HCC-2998 colon) [µM] | GI50 (SN12C renal) [µM] | GI50 (K-562 leukemia) [µM] | GI50 (MCF7 breast) [µM] | GI50 (HT29 colon) [µM] | GI50 (TK-10 renal) [µM] | GI50 (SK-MEL-28 melanoma) [µM]
COc1ccc2c(c1OCC(=O)O)C(=O)C(CCC(=O)O)CC2 (stereo not given) | > 100 | > 100 | > 100 | > 100 | > 100 | > 100 | – | – | – | – | – | – | – | – | – | – | – | – | – | –
NC(N)=NCCCC(=O)O | > 100 | > 100 | – | > 100 | > 100 | > 100 | > 100 | > 100 | > 100 | > 100 | – | – | – | – | – | – | – | – | – | –
Cc1nc(N)sc1N=Nc1ccccc1Br | > 59.5 | > 100 | 21.7 | 57.5 | > 88.1 | 59 | – | > 100 | 70.2 | 70.4 | – | – | – | – | – | – | – | – | – | –
COc1ccc(-c2nnc3n(C)c(=O)c4ccccc4n23)cc1N | 8.82 | > 100 | > 100 | > 100 | – | > 100 | > 100 | > 100 | > 100 | – | 4.43 | 1.63 | 0.0523 | 5.29 | 6.83 | 0.0395 | 0.043 | 0.0432 | – | –
CC1(C)COC(c2cccc3c2C(=O)c2cccc(Cl)c2-3)=N1 | > 100 | > 100 | > 100 | > 100 | > 100 | > 100 | – | > 100 | – | > 100 | – | – | – | – | – | – | – | – | – | –
NC1CCN(Cc2ccccc2)CC1 | 6.21 | > 100 | > 100 | > 100 | – | > 100 | – | > 100 | > 100 | > 100 | – | 2.27 | > 100 | > 100 | > 100 | > 100 | > 100 | > 100 | > 100 | –
O=C(Nc1cccc(C(F)(F)F)c1)c1ccc(NC2=C(Cl)C(=O)N(Cc3ccc(Cl)cc3Cl)C2=O)cc1 | 21.5 | 6.05 | – | 32.8 | 30.9 | 36.8 | 8.26 | 4.49 | 4.71 | 35.7 | 2.88 | 8.06 | 2.12 | – | 17.4 | 1.83 | 2.15 | 3.82 | 15.6 | 14.1
CC12CCC(=O)C[C@H]1CCC(OC=O)C2Br (stereo not given in full) | > 100 | > 100 | > 100 | > 100 | > 100 | > 100 | – | > 100 | – | > 100 | – | – | – | – | – | – | – | – | – | –
N#Cc1nn(-c2cc(=O)[nH]c3ccc(Cl)cc23)c(N)c1C#N | > 100 | > 100 | > 100 | > 100 | > 100 | > 100 | > 100 | – | > 100 | > 100 | > 100 | > 100 | > 100 | > 100 | > 100 | – | 82.3 | > 100 | > 100 | > 100
COC(=O)C1CCCC2(C1)OCCO2 (stereo not given) | > 100 | > 100 | > 100 | > 100 | > 100 | > 100 | – | > 100 | – | > 100 | – | – | – | – | – | – | – | – | – | –
C/C(CC(=O)Nc1ccc(C)c(C)c1)=N\N(c1ccccc1)c1ccccc1 | > 100 | – | > 100 | > 100 | > 100 | > 100 | – | 68.9 | – | > 100 | – | – | – | – | – | – | – | – | – | –
CN1C(=O)c2ccccc2NC(=O)C12O[C@@H]2c1ccccc1 (stereo not given in full) | > 100 | > 100 | > 100 | > 100 | > 100 | > 100 | > 100 | – | > 100 | > 100 | – | – | – | – | – | – | – | – | – | –
COc1cc(Cl)cc(-c2nn(-c3cccc(NC(=O)c4ccc(N5CCOCC5)c(C(F)(F)F)c4)c3)cc2-c2ccncc2)c1 | > 100 | > 100 | 74.7 | > 100 | > 100 | 38 | > 100 | > 100 | > 100 | – | 6.48 | 3.74 | 29.8 | 6.06 | > 100 | 3.1 | 8.71 | 4.09 | – | 14.8
COC(=O)/C(C#N)=C1\N=NNN1c1ccc(OC)cc1 | > 100 | > 100 | > 100 | > 100 | > 100 | > 100 | – | > 100 | – | > 100 | – | – | – | – | – | – | – | – | – | –
CCOC(=O)N[C@H]1CCc2cc(OC)c(OC)c(OC)c2-c2ccc(SC)c(=O)cc21 | < 0.01 | > 100 | > 69.6 | > 100 | > 100 | – | > 100 | > 100 | > 100 | > 100 | – | – | – | – | < 0.01 | – | – | – | 7.23 | > 55.6
CCOC(=O)c1nc2c(OC)nn(O)cc-2c1[N+](=O)[O-] | 73.3 | 29.1 | – | 34.7 | 29.9 | 29.3 | – | 36.8 | – | 30 | – | – | – | – | – | – | – | – | – | –
Cc1nc(Nc2ccc(Cl)cc2)sc1C(=O)NNC(=S)NN | 31.8 | 38.1 | 28.8 | 34.3 | 35 | – | – | 99 | – | 45.1 | – | – | – | – | – | – | – | – | – | –
O=C(Nc1cccc(Cl)c1)C(=O)C(C(=O)c1ccc2ccccc2c1)C1OC(=O)c2ccccc21 (stereo not given) | – | 80.9 | 21.8 | 51 | 25.8 | 84.5 | – | 70.2 | – | 77.4 | – | – | – | – | – | – | – | – | – | –
Cc1ccc(C)c(NC(=O)c2cccc([N+](=O)[O-])c2O)c1 | > 100 | > 100 | > 100 | > 100 | > 100 | > 100 | – | > 100 | – | – | – | – | – | – | – | – | – | – | – | –
Cc1cc2c(=O)c3ccccc3[nH]c2c(C(N)=O)c1C | > 100 | > 100 | – | > 100 | > 100 | > 100 | – | > 100 | – | > 100 | – | – | – | – | – | – | – | – | – | –
